US20060147558A1, “Remedies” (priority 2000, published 2006)

Columns and labels:
[1] = test system: HGF production of MRC-5 cells; assay: enhancing activity for HGF production: MRC-5 cells cultured 24 h with sample, HGF in medium by ELISA; assay type: cell-based, human; conditions: for Amount of HGF Produced: control = 100%
Experimental: (1) The enhancing activity for HGF production of each of the bamboo blade extract (sample (1)) prepared in item (1) of Example 1, and the lower layer fraction (sample (2)) and the upper layer fraction (sample (3)) prepared in item (2) of Example 1 was assayed. Five-hundred microliters each of MRC-5 cells (CCL 171: manufactured by DAINIPPON PHARMACEUTICAL CO., LTD., code. 02-021) suspended in a DME medium containing 10% fetal bovine serum so as to have a concentration of 1×10^5 cells/ml were added into each well of a 48-well cell culture plate. The cells were cultured at 37° C. for 24 hours in the presence of 5% CO2, and then the medium was exchanged for a DME medium containing 1% fetal bovine serum. Thereafter, the sample was added to the medium, and the cells were further cultured for 24 hours. The medium was then collected, and by using Quantikine Human Hepatocyte Growth Factor (HGF) ELISA Kit (manufactured by Funakoshi, Code. RS-0641-00), the amount of HGF in the medium was determined. The amount of HGF produced was expressed, assuming that the value of the negative control is 100%. […] As the negative control, distilled water was added in the same volume as that of the sample. The amount of HGF produced was expressed, assuming that the value of the negative control is 100%. The results for the sample (1) are shown in Table 1, and the results for the sample (2) and the sample (3) are shown in Table 2. Each experiment was carried out twice, and its average value was taken. […] From the above, it was shown that the bamboo blade extract has an enhancing activity for HGF production.

[2] = test system: NGF production of L-M cells; assay: enhancing activity for NGF production: L-M cells cultured 20 h with sample, NGF in medium by enzyme immunoassay; assay type: cell-based, murine; conditions: for Amount of NGF Produced: control = 100%; for enhancing activity for NGF production: result in words, no value given
Experimental: L-M cells (ATCC CCL-1.2) from murine fibroblasts were suspended in an M199 medium (manufactured by ICN) containing 0.5% bactopeptone (manufactured by Gibco) so as to have a concentration of 1.5×10^5 cells/ml. The suspension was put in a 96 well plate in an amount of 0.1 ml each well, and the cells were aseptically cultured. After culturing the cells for 3 days, the medium was removed therefrom, and exchanged with an M199 medium containing 0.5% bovine serum albumin (manufactured by Sigma). […] After the termination of the culture, the concentration of the nerve growth factor in the culture medium was assayed by an enzyme immunoassay method (NGF Emax Immuno Assay System, manufactured by Promega). The enhancement for NGF production was expressed, assuming that the NGF concentration in the cell culture medium with no addition of the sample is 100%. The experiment was carried out twice, and an average value was taken. As a result, the yellow pigment from Carthamus tinctorius enhanced NGF production of the L-M cells in a concentration dependent manner.

## O=C(/C=C/c1ccc(O)c(O)c1)O[C@@H]1CC(O)(C(=O)O)C[C@@H](OC(=O)/C=C/c2ccc(O)c(O)c2)C1O (stereo partly drawn) [3,5-Dicaffeoyl-quinic Acid, 3,5-dicaffeoyl-quinic acid]
[1]; 1 μM
  Amount of HGF Produced: 142%
[1]; 10 μM
  Amount of HGF Produced: 206%
[1]; 100 μM
  Amount of HGF Produced: 290%

## CC1(C)Oc2ccc3ccc(=O)oc3c2C(O)C1OC1OC(CO)C(O)C(O)C1O [10 (62.2), 3′-O-β-D-glucopyranoyl khellactone]
[2]; 2.0 mg/ml
  Amount of NGF Produced: 565.5%

## CC(C)=CCc1c(O[C@@H]2O[C@H](CO)[C@@H](O)[C@H](O)[C@H]2O)ccc2ccc(=O)oc12 [13-2 (8.7), 7-O-β-D-glucopyranosyloxy-8-prenylcoumarin]
[2]; 1.0 mg/ml
  Amount of NGF Produced: 792.1%

## COC(=O)/C=C/c1ccc(O)c(O)c1 [18-3 (10.6), caffeic acid methyl ester]
[2]; 0.25 mg/ml
  Amount of NGF Produced: 3039.6%

## COc1ccc(C(=O)O)c2c1CC(O)C(C)(C)O2 (stereo not drawn) [18-4 (10.9), 8-carboxyl-3-hydroxy-5-methoxyl-2-dimethylchroman]
[2]; 0.0375 mg/ml
  Amount of NGF Produced: 2510.4%

## CC(C)=CCc1cc2ccc(=O)oc2cc1O[C@@H]1O[C@H](CO)[C@@H](O)[C@H](O)[C@H]1O [19-, 20-5 (16.4), 7-β-D-glucopyranosyloxy-6-prenylcoumarin]
[2]; 1.0 mg/ml
  Amount of NGF Produced: 487.9%

## C/C=C(/C)C(=O)OC1c2c(ccc3ccc(=O)oc23)OC(C)(C)C1O[C@@H]1O[C@H](CO[C@@H]2O[C@H](CO)[C@@H](O)[C@H](O)[C@H]2O)[C@@H](O)[C@H](O)[C@H]1O (stereo partly drawn) [19-, 20-6 (18.8), 4′-O-angeloyl-3′-O-[6-O-(β-D-glucopyranosyl)-β-D-glucopyranosyl]-khellactone]
[2]; 1.0 mg/ml
  Amount of NGF Produced: 337.7%

## CCOC(=O)/C=C/c1ccc(O)c(O)c1 [28 (91.4), caffeic acid ethyl ester]
[2]; 0.05 mg/ml
  Amount of NGF Produced: 1058.1%

## CCOC(=O)/C=C/c1ccc(O)c(O)c1 [Caffeic acid ethyl ester, caffeic acid ethyl ester]
[2]; 62.5 μg/ml
  Amount of NGF Produced: 1279.1%

## COC(=O)/C=C/c1ccc(O)c(O)c1 [Caffeic acid methyl ester, caffeic acid methyl ester]
[2]; 62.5 μg/ml
  Amount of NGF Produced: 824.4%

## O=C(/C=C/c1ccc(O)c(O)c1)O[C@@H]1C[C@](O)(C(=O)O)C[C@@H](O)[C@H]1O [Chlorogenic Acid, chlorogenic acid]
[1]; 1 μM
  Amount of HGF Produced: 105%
[1]; 10 μM
  Amount of HGF Produced: 122%
[1]; 100 μM
  Amount of HGF Produced: 302%
[1]; 500 μM
  Amount of HGF Produced: 479%
[1]; 1000 μM
  Amount of HGF Produced: 624%
[1]; result in words, no value given
  enhancing activity for HGF production: enhancing activity for HGF production existed

## COc1cc(O)c(CC=C(C)C)c2c1C(=O)CC(c1ccc(O)cc1)O2 (stereo not drawn) [Isoxanthohumol, isoxanthohumol]
[2]; 50 μM
  Amount of NGF Produced: 110.7%
[2]; 100 μM
  Amount of NGF Produced: 121.4%
[2]; 200 μM
  Amount of NGF Produced: 198.0%

## O=C1C([C@@H]2O[C@H](CO)[C@@H](O)[C@H](O)[C@H]2O)=C(O)/C(=C(O)/C=C/c2ccc(O)cc2)C(=O)C1(O)[C@@H]1O[C@H](CO)[C@@H](O)[C@H](O)[C@H]1O (stereo partly drawn) [Safflomin A, safflomin A]
[2]; 2.5 mg/ml
  Amount of NGF Produced: 130.7%
[2]
  enhancing activity for NGF production: has the enhancing activity for NGF production

## CC(C)=CCC/C(C)=C/Cc1c(O)ccc(C(=O)/C=C/c2ccc(O)cc2)c1O [Xanthoangelol, xanthoangelol]
[2]; 25 μM
  Amount of NGF Produced: 126.1%
[2]; 50 μM
  Amount of NGF Produced: 202.6%
[2]; 100 μM
  Amount of NGF Produced: 265.7%

## COc1cc(O)c(CC=C(C)C)c(O)c1C(=O)/C=C/c1ccc(O)cc1 [Xanthohumol, xanthohumol]
[2]; 12.5 μM
  Amount of NGF Produced: 235.5%
[2]; 25 μM
  Amount of NGF Produced: 387.9%
[2]; 50 μM
  Amount of NGF Produced: 443.0%
[2]
  enhancing activity for NGF production: has the activity
